The values below are quoted from earlier work in patent US6750247B2, “Sponge-derived terpenoids and methods of use” (Galileo Laboratories, Inc., priority 2001, dated 2004).

In the data set the target is T1, lipoxygenase (Homo sapiens, UniProt P09917).
T1 sequence (P09917 1-674): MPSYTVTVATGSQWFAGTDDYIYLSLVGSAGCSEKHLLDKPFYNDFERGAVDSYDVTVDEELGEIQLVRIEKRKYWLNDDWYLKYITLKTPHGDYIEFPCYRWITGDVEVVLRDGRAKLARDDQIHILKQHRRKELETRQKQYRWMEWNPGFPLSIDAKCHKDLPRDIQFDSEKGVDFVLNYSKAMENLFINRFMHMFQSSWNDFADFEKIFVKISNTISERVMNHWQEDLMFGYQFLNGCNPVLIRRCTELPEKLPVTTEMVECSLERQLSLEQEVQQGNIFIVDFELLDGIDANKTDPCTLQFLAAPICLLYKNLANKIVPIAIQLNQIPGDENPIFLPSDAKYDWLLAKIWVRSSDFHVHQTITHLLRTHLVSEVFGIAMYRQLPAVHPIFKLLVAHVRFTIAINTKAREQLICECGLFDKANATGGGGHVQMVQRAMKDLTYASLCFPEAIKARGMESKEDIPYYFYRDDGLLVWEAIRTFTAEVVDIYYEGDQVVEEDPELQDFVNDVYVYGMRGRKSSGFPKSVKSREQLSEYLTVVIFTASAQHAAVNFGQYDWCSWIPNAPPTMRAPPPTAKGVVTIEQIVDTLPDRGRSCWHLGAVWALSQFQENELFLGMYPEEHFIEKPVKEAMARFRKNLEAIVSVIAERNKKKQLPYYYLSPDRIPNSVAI
Conditions: Cabre et al., Inflamm. Res. 1996; cited from earlier work.

For `CC1=C(CC/C(C)=C/CCC2=CC[C@H](C3=CC(=O)O[C@H]3O)O[C@H]2O)C(C)(C)CCC1` [manoalide], the lipoxygenase inhibitory properties entry is “no lipoxygenase inhibitory properties”.
